System: HLA-A2.1
Assay: Pulse-chase of HLA-A2.1 maturation and turnover in transfected HeLa cells
Type: cell-based, human
Conditions: for effect of inhibitor on degradation of HLA-A2.1 heavy chains: MARCH-IV and HLA-A2.1 co-transfected cells, concanamycin A 50 nM, lactacystin 20 μM
Description: Metabolic labeling, immunoprecipitation and Western blotting. HeLa cells were grown to 80% confluency in 100 mm tissue culture dishes and transfected as above. Cells were incubated in serum-free and methionine-free medium for 30 minutes, and metabolically labeled with ^35S-cysteine/^35S-methionine (250 μCi, Amersham) for the indicated time. After labeling, cells were washed twice with PBS and either lysed immediately in PBS containing 1% Triton X-100 and protease inhibitors (Roche, Indianapolis, Ind.), or the label was chased with excess (2 mM) unlabeled cysteine and methionine in the presence or absence of specific inhibitors for the indicated time. The cell lysates were precleared with protein A/G agarose beads and incubated with 3 μg of antibody for one hour and followed by two hours incubation with protein A/G beads. Immunoprecipated proteins were washed five times with 0.1% Triton X-100 in PBS. All samples were boiled in SDS buffer and analyzed by SDS-PAGE gel electrophoresis. Where indicated, samples were treated with Endoglycosidase H (Roche) according to manufacturer's instructions. Briefly, samples were initially denatured at 100° C. in 40 μl of 0.3% SDS, 150 mM 2-mercaptoethanol, 50 mM sodium acetate, pH 5.5 and incubated with 4 milli-Units of Endo H overnight at 37° C. All samples were boiled in SDS buffer and analyzed by SDS-PAGE gel electrophoresis. Gels were fixed, dried and exposed to Kodak BioMax MR film. Western blotting was accomplished using the WesternBreeze Chemiluminescent Detection System (Invitrogen) following Semi-dry transfer to PVDF membranes (Millipore, Bedford, Mass.).
To determine the ultimate fate of the MHC I molecules in the presence of MARCH-IV, the maturation and turnover of co-transfected HLA-A2.1 in pulse-chase experiments (FIG. 12B) was followed. In the absence of MARCH-IV, HLA-A2.1 molecules acquired Endo H resistance after 1 hour of chase indicating exit from the ER. […]

Structure (SMILES) | effect of inhibitor on degradation of HLA-A2.1 heavy chains | effect of inhibitor on HLA-A2.1 in the absence of MARCH-IV (cells without MARCH-IV)
C/C=C/[C@H]1O[C@@](O)([C@@H](C)[C@H](O)[C@H](C)[C@H]2OC(=O)/C(OC)=C/C(C)=C/[C@@H](C)[C@@H](O)[C@@H](CC)[C@@H](O)[C@H](C)C/C(C)=C/C=C/[C@@H]2OC)C[C@@H](O[C@H]2C[C@@H](O)[C@H](OC(N)=O)[C@@H](C)O2)[C@@H]1C [concanamycin A] | delayed the degradation of HLA-A2.1 | no effect
CC(=O)N[C@@H](CSC(=O)[C@]1([C@@H](O)C(C)C)NC(=O)[C@H](C)[C@@H]1O)C(=O)O [lactacystin] | did not increase recovery of HLA-A2.1 heavy chains | 
